Laboratory results as given in ChEMBL document CHEMBL4699634, “Series of Novel and Highly Potent Cyclic Peptide PCSK9 Inhibitors Derived from an mRNA Display Screen and Optimized via Structure-Based Design” (J Med Chem, 2020).
Numbered stars: 1 amine (or outer) side, 2 acyl side, 3 side chain; on linkers, the order of the positions; unused ones are H or OH. Bridge positions count the residues as written; N and C are the ends. Square brackets hold non-standard residues; d marks the D form. Peptide text beside a SMILES is read from it. ξ: configuration not given here. Trp(5-F) = N[C@@H](Cc1c[nH]c2ccc(F)cc12)C(=O)O; Trp(7-aza) = N[C@@H](Cc1c[nH]c2ncccc12)C(=O)O; NMePhe(4-F) = CN[C@@H](Cc1ccc(F)cc1)C(=O)O; mXylylene(5-F) = Fc1cc(C[*:1])cc(C[*:2])c1; X1 = O=C(CCSCc1cccc(CSCCN[*:1])c1)[*:2]; mXylylene = c1cc(C[*:1])cc(C[*:2])c1; NMeK = CN[C@@H](CCCCN)C(=O)O; Tle = CC(C)(C)[C@H](N)C(=O)O; αMeP = C[C@@]1(C(=O)O)CCCN1; Nva = CCC[C@H](N)C(=O)O; ξNle = CCCCC(N)C(=O)O; Mpa = O=C(O)CCS; Sar = CNCC(=O)O

Key:
[1] = target: Proprotein convertase subtilisin/kexin type 9 (Homo sapiens, UniProt Q8NBP7); assay: Inhibition of AlexaFluor647-tagged cyclic peptide binding to avi-tagged-biotinylated human PCSK9 measured after 2 hrs by Lance Streptavidin Europium based FRET assay
Sequence of Proprotein convertase subtilisin/kexin type 9 (Q8NBP7 31-152 limits assumed): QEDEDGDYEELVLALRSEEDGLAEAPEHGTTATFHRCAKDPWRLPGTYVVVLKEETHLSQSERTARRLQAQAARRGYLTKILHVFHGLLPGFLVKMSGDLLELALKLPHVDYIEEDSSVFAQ
Sequence of Proprotein convertase subtilisin/kexin type 9 (Q8NBP7 153-692 limits assumed): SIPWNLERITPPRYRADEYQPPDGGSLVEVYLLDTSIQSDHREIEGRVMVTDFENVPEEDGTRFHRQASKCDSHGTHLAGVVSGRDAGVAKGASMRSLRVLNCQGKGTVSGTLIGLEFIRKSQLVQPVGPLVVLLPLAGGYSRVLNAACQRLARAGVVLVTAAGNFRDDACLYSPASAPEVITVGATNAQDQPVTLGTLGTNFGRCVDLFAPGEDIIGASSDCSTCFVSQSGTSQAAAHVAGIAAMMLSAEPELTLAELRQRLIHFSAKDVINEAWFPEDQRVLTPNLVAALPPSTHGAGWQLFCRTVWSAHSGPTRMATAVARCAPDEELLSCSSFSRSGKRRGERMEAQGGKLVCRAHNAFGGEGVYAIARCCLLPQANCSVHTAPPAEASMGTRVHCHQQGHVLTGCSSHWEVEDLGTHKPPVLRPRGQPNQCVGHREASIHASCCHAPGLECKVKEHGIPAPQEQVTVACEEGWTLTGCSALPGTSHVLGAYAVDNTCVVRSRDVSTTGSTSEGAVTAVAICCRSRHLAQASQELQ

[2] = target: PCSK9/LDLR (Homo sapiens, UniProt Q8NBP7); assay: Inhibition of avi-tagged-biotinylated human PCSK9 interaction with His-tagged human LDLR EGFa domain by LANCE Ulight Streptavidin based TR-FRET assay; type: protein assay
Sequence of PCSK9/LDLR (Q8NBP7 31-152 limits assumed): as the sequence (Q8NBP7 31-152 limits assumed) above
Sequence of PCSK9/LDLR (Q8NBP7 153-692 limits assumed): as the sequence (Q8NBP7 153-692 limits assumed) above
Sequence of PCSK9/LDLR (P01130 22-860 partner limits assumed): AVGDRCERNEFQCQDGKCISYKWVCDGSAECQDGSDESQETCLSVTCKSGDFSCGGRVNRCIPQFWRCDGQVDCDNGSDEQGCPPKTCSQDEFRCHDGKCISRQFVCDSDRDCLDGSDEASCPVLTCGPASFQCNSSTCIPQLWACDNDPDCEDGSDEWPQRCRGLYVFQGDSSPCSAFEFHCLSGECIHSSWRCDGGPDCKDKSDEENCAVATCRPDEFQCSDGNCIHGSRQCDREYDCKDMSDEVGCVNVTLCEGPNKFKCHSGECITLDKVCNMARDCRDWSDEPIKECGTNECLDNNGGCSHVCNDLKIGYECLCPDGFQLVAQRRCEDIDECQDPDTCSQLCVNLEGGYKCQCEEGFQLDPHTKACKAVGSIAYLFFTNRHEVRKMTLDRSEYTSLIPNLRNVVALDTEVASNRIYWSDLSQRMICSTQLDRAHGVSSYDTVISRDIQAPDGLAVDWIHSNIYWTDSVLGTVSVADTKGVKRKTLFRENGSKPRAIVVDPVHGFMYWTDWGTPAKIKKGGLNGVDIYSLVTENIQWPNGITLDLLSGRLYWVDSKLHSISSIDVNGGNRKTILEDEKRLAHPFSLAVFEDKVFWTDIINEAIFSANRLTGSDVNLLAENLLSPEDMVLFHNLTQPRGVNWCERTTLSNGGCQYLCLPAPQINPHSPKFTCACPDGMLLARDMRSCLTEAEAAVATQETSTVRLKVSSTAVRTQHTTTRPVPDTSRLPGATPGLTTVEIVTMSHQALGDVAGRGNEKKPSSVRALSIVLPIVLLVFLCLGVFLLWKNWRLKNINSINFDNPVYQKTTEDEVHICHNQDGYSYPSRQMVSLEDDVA

Row | Structure (SMILES) | Ki [1] [nM] | Ki [2] [nM]
1 | COc1ccc(C[C@@H]2NC(=O)[C@H]([C@@H](C)O)NC(=O)[C@@H]3CC(=O)NCc4cccc(c4)C[C@H](NC(=O)[C@@H](C)NC(=O)[C@H](C)NC(=O)CCSCc4cccc(c4)CSCCNC(=O)[C@]4(C)CCCN4C2=O)C(=O)N[C@@H](Cc2c[nH]c4ccc(F)cc24)C(=O)N3)cc1 | 285 | –
2 | COc1ccc(C[C@@H]2NC(=O)[C@H](Cc3cnc[nH]3)NC(=O)[C@H](CC(=O)O)NC(=O)[C@H](Cc3c[nH]c4ccc(F)cc34)NC(=O)[C@H](Cc3c[nH]c4ccc(F)cc34)NC(=O)[C@@H](C)NC(=O)[C@H](CCCCN)NC(=O)CCSCc3cccc(c3)CSCCNC(=O)[C@]3(C)CCCN3C2=O)cc1 | 3.9 | –
3 | CCC[C@H]1NC(=O)[C@H](CCCCN)NC(=O)CCSCc2cccc(c2)CSCCNC(=O)[C@]2(C)CCCN2C(=O)[C@H](Cc2ccc(O)cc2)NC(=O)[C@H](Cc2cnc[nH]2)NC(=O)[C@H](CC(=O)O)NC(=O)[C@H](Cc2c[nH]c3ccc(F)cc23)NC(=O)[C@H](Cc2c[nH]c3ccc(F)cc23)NC1=O | 2.7 | 43.5
4 | C[C@@]12CCCN1C(=O)[C@H](Cc1ccc(O)cc1)NC(=O)[C@H](Cc1cnc[nH]1)NC(=O)[C@H](CC(=O)O)NC(=O)[C@H](Cc1c[nH]c3ccc(F)cc13)NC(=O)[C@H](Cc1c[nH]c3ccc(F)cc13)NC(=O)[C@@H](C1CCCC1)NC(=O)[C@H](CCCCN)NC(=O)CCSCc1cccc(c1)CSCCNC2=O | 23.1 | –
5 | C[C@H]1NC(=O)[C@H](CCCCN)NC(=O)CCSCc2cc(F)cc(c2)CSC[C@@H](C(N)=O)NC(=O)[C@]2(C)CCCN2C(=O)[C@H](Cc2ccc(O)cc2)NC(=O)[C@H]([C@@H](C)O)NC(=O)[C@@H]2CCCN2C(=O)[C@H](Cc2c[nH]c3ccc(F)cc23)NC(=O)[C@H](Cc2c[nH]c3ccc(F)cc23)NC1=O ([Mpa]K[dA][Trp(5-F)][Trp(5-F)]PTY[αMeP]C-NH2; linker 1-10 via mXylylene(5-F)) | 11 | –
6 | COc1ccc(C[C@@H]2NC(=O)[C@H]([C@@H](C)OC)NC(=O)[C@@H]3CCC(=O)NCc4cccc(c4)C[C@H](NC(=O)[C@@H](C)NC(=O)[C@H](C)NC(=O)CCSCc4cccc(c4)CSCCNC(=O)[C@]4(C)CCCN4C2=O)C(=O)NC(Cc2ccnc4ccc(F)cc24)C(=O)N3C)cc1 (stereo partly specified) | 2.8 | –
7 | CC(C)(C)[C@H]1NC(=O)[C@H](CCCCN)NC(=O)CCSCc2cccc(c2)CSCCNC(=O)[C@]2(C)CCCN2C(=O)[C@H](Cc2ccc(O)cc2)NC(=O)[C@H](Cc2cnc[nH]2)NC(=O)[C@H](CC(=O)O)NC(=O)[C@H](Cc2c[nH]c3ccc(F)cc23)NC(=O)[C@H](Cc2c[nH]c3ccc(F)cc23)NC1=O | 4.2 | –
8 | COc1ccc(C[C@@H]2NC(=O)[C@H]([C@@H](C)O)NC(=O)[C@@H]3CCCCC(=O)NCc4ccc(cc4)C[C@H](NC(=O)[C@@H](C)NC(=O)[C@H](C)NC(=O)CCSCc4cccc(c4)CSCCNC(=O)[C@]4(C)CCCN4C2=O)C(=O)N[C@@H](Cc2c[nH]c4ccc(F)cc24)C(=O)N3)cc1 | 175 | –
9 | CCCCC(NC(C)=O)C(=O)N[C@H]1CSCc2cccc(c2)CSC[C@@H](C(N)=O)NC(=O)[C@H]([C@@H](C)O)NC(=O)[C@H](CCC)NC(=O)[C@H](Cc2ccc(O)cc2)NC(=O)[C@H](CCC(=O)O)NC(=O)[C@H](CCC)NC(=O)[C@H](Cc2c[nH]c3ncccc23)NC(=O)[C@H]([C@@H](C)O)NC(=O)[C@H](Cc2cnc[nH]2)NC(=O)[C@H](Cc2ccc(O)cc2)NC(=O)[C@H](C(C)(C)C)NC1=O (stereo partly specified) (Ac-[ξNle]C[Tle]YHT[Trp(7-aza)][Nva]EY[Nva]TC-NH2; linker 2-13 via mXylylene) | – | 134
10 | NCCCC[C@H]1NC(=O)CCSCc2cccc(c2)CSC[C@@H](C(N)=O)NC(=O)[C@@H]2CCCN2C(=O)[C@H](Cc2ccc(O)cc2)NC(=O)[C@H](Cc2cnc[nH]2)NC(=O)[C@H](CC(=O)O)NC(=O)[C@H](Cc2c[nH]c3ccc(F)cc23)NC(=O)[C@H](Cc2c[nH]c3ccc(F)cc23)NC(=O)CNC1=O | – | 16200
11 | C[C@@H]1NC(=O)[C@H](CC(=O)O)NC(=O)[C@H](Cc2c[nH]c3ccc(F)cc23)NC(=O)[C@H](Cc2c[nH]c3ccc(F)cc23)NC(=O)CNC(=O)[C@H](CCCCN)NC(=O)CCSCc2cccc(c2)CSC[C@@H](C(N)=O)NC(=O)[C@@H]2CCCN2C(=O)[C@H](Cc2ccc(O)cc2)NC1=O ([Mpa]KG[Trp(5-F)][Trp(5-F)]DAYPC-NH2; linker 1-10 via mXylylene) | – | 525
12 | CC(=O)N[C@H]1CSCc2cccc(c2)CSC[C@@H](C(N)=O)NC(=O)[C@@H]2CCCN2C(=O)[C@H](Cc2ccc(O)cc2)NC(=O)[C@H](Cc2cnc[nH]2)NC(=O)[C@H](CC(=O)O)NC(=O)[C@H](Cc2c[nH]c3ccccc23)NC(=O)[C@H](Cc2c[nH]c3ccc(F)cc23)NC(=O)CNC(=O)[C@H](CCCCN)NC1=O (Ac-CKG[Trp(5-F)]WDHYPC-NH2; linker 1-10 via mXylylene) | – | 1070
13 | NCCCC[C@@H]1NC(=O)CCSCc2cccc(c2)CSC[C@@H](C(N)=O)NC(=O)[C@H]2CCCN2C(=O)[C@H](Cc2ccc(O)cc2)NC(=O)[C@H](Cc2cnc[nH]2)NC(=O)[C@H](CC(=O)O)NC(=O)[C@H](Cc2c[nH]c3ccc(F)cc23)NC(=O)[C@H](Cc2c[nH]c3ccc(F)cc23)NC(=O)CNC1=O | – | > 50000
14 | CC(=O)N[C@H]1CSCc2cccc(c2)CSC[C@@H](C(N)=O)NC(=O)[C@@H]2CCCN2C(=O)[C@H](Cc2ccc(O)cc2)NC(=O)[C@H](Cc2c[nH]cn2)NC(=O)[C@H](CC(=O)O)NC(=O)[C@H](Cc2c[nH]c3ccc(F)cc23)NC(=O)[C@H](Cc2c[nH]c3ccccc23)NC(=O)CNC(=O)[C@H](CCCCN)NC1=O (Ac-CKGW[Trp(5-F)]DHYPC-NH2; linker 1-10 via mXylylene) | – | 103
15 | CC(=O)N[C@@H](Cc1cnc[nH]1)C(=O)N(C)[C@@H](Cc1ccc(F)cc1)C(=O)N[C@H]1CSCc2cccc(c2)CSC[C@@H](C(N)=O)NC(=O)[C@@H]2CCCN2C(=O)[C@H](Cc2ccc(O)cc2)NC(=O)[C@H](Cc2cnc[nH]2)NC(=O)[C@H](CC(=O)O)NC(=O)[C@H](Cc2c[nH]c3ccc(F)cc23)NC(=O)[C@H](Cc2c[nH]c3ccc(F)cc23)NC(=O)CNC(=O)[C@H](CCCCN)NC1=O (Ac-H[NMePhe(4-F)]CKG[Trp(5-F)][Trp(5-F)]DHYPC-NH2; linker 3-12 via mXylylene) | – | 956
16 | COc1ccc(C[C@@H]2NC(=O)[C@H]([C@@H](C)O)NC(=O)[C@@H]3CCCC(=O)NCc4cccc(c4)C[C@H](NC(=O)[C@@H](C)NC(=O)[C@H](C)NC(=O)CCSCc4cccc(c4)CSCCNC(=O)[C@]4(C)CCCN4C2=O)C(=O)N[C@@H](Cc2c[nH]c4ccc(F)cc24)C(=O)N3)cc1 | 44.2 | –
17 | CN1CC(=O)N[C@H](C(N)=O)CSCc2cccc(c2)CSCCC(=O)N[C@@H](CCCCN)C(=O)NCC(=O)N[C@@H](Cc2c[nH]c3ccc(F)cc23)C(=O)N[C@@H](Cc2c[nH]c3ccc(F)cc23)C(=O)N[C@@H](CC(=O)O)C(=O)N[C@@H](Cc2cnc[nH]2)C(=O)N[C@@H](Cc2ccc(O)cc2)C1=O ([Mpa]KG[Trp(5-F)][Trp(5-F)]DHY[Sar]C-NH2; linker 1-10 via mXylylene) | – | 10700
18 | NCCCC[C@@H]1NC(=O)CCSCc2cccc(c2)CSC[C@@H](C(N)=O)NC(=O)[C@@H]2CCCN2C(=O)[C@H](Cc2ccc(O)cc2)NC(=O)[C@H](Cc2cnc[nH]2)NC(=O)[C@H](CC(=O)O)NC(=O)[C@@H](Cc2c[nH]c3ccccc23)NC(=O)[C@H](Cc2c[nH]c3ccc(F)cc23)NC(=O)CNC1=O | – | > 48000
19 | CC(=O)N[C@H]1CSCc2cccc(c2)CSC[C@@H](C(N)=O)NC(=O)[C@@H]2CCCN2C(=O)[C@H](Cc2ccc(O)cc2)NC(=O)[C@H](Cc2cnc[nH]2)NC(=O)[C@H](CC(=O)O)NC(=O)[C@H](Cc2c[nH]c3ccc(F)cc23)NC(=O)[C@H](Cc2c[nH]c3ccc(F)cc23)NC(=O)CNC(=O)[C@H](CCCCN)NC1=O (Ac-CKG[Trp(5-F)][Trp(5-F)]DHYPC-NH2; linker 1-10 via mXylylene) | – | 47.1
20 | NCCCC[C@@H]1NC(=O)CCSCc2cccc(c2)CSCCNC(=O)[C@@H]2CCCN2C(=O)[C@H](Cc2ccc(O)cc2)NC(=O)[C@H](Cc2c[nH]cn2)NC(=O)[C@H](CC(=O)O)NC(=O)[C@H](Cc2c[nH]c3ccc(F)cc23)NC(=O)[C@H](Cc2c[nH]c3ccc(F)cc23)NC(=O)CNC1=O (cyclo(DHYP[X1]KG[Trp(5-F)][Trp(5-F)])) | – | 252
21 | C[C@@H]1NC(=O)CNC(=O)[C@H](CCCCN)NC(=O)CCSCc2cccc(c2)CSC[C@@H](C(N)=O)NC(=O)[C@@H]2CCCN2C(=O)[C@H](Cc2ccc(O)cc2)NC(=O)[C@H](Cc2cnc[nH]2)NC(=O)[C@H](CC(=O)O)NC(=O)[C@H](Cc2c[nH]c3ccc(F)cc23)NC1=O ([Mpa]KGA[Trp(5-F)]DHYPC-NH2; linker 1-10 via mXylylene) | – | 656
22 | NCCCC[C@@H]1NC(=O)CCSCc2cccc(c2)CSC[C@H](C(N)=O)NC(=O)[C@@H]2CCCN2C(=O)[C@H](Cc2ccc(O)cc2)NC(=O)[C@H](Cc2cnc[nH]2)NC(=O)[C@H](CC(=O)O)NC(=O)[C@H](Cc2c[nH]c3ccc(F)cc23)NC(=O)[C@H](Cc2c[nH]c3ccc(F)cc23)NC(=O)CNC1=O | – | 2010
23 | COc1ccc(C[C@@H]2NC(=O)[C@H]([C@@H](C)O)NC(=O)[C@@H]3CCCCC(=O)NCc4cccc(c4)C[C@H](NC(=O)[C@@H](C)NC(=O)[C@H](C)NC(=O)CCSCc4cccc(c4)CSCCNC(=O)[C@]4(C)CCCN4C2=O)C(=O)N[C@@H](Cc2c[nH]c4ccc(F)cc24)C(=O)N3)cc1 | 4 | –
24 | CN1C(=O)CCSCc2cccc(c2)CSC[C@@H](C(N)=O)NC(=O)[C@@H]2CCCN2C(=O)[C@H](Cc2ccc(O)cc2)NC(=O)[C@H](Cc2cnc[nH]2)NC(=O)[C@H](CC(=O)O)NC(=O)[C@H](Cc2c[nH]c3ccc(F)cc23)NC(=O)[C@H](Cc2c[nH]c3ccc(F)cc23)NC(=O)CNC(=O)[C@@H]1CCCCN ([Mpa][NMeK]G[Trp(5-F)][Trp(5-F)]DHYPC-NH2; linker 1-10 via mXylylene) | – | 342
25 | C[C@@H]1NC(=O)CCSCc2cccc(c2)CSCCNC(=O)[C@]2(C)CCCN2C(=O)[C@H](Cc2ccc(O)cc2)NC(=O)[C@H](Cc2cnc[nH]2)NC(=O)[C@H](CC(=O)O)NC(=O)[C@H](Cc2c[nH]c3ccc(F)cc23)NC(=O)[C@H](Cc2c[nH]c3ccc(F)cc23)NC(=O)[C@@H](CCCCN)NC1=O | – | 48.1
